For three compounds, IC50 results are on record in patent US20220340579A1, “PYRAZOLYL BICYCLIC AMINES AS CDK2 INHIBITORS” (Incyte Corporation, priority 2021, published 2022).

In the assay the target is T1, CDK2/Cyclin E1 (Homo sapiens, UniProt P24941).
T1 construct: enzyme activity assays utilize full-length human CDK2; GST (N); purchased Carna 04-165; host or cells: baculovirus expression system
The assay can be described thus: CDK2/Cyclin E1 HTRF enzyme activity assay. Format: biochemical. Particulars: 1 mM ATP. The method, then: Example A. CDK2/Cyclin E1 HTRF Enzyme Activity Assay
CDK2/Cyclin E1 enzyme activity assays utilize full-length human CDK2 co-expressed as N-terminal GST-tagged protein with FLAG-Cyclin E1 in a baculovirus expression system (Carna Product Number 04-165). Assays were conducted in white 384-well polystyrene plates in a final reaction volume of 8 μL. CDK2/Cyclin E1 (0.25 nM) was incubated with the compounds of the Examples (40 nL serially diluted in DMSO) in the presence of ATP (50 μM or 1 mM) and 50 nM ULight™-labeled eIF4E-binding protein 1 (THR37/46) peptide (PerkinElmer) in assay buffer (containing 50 mM HEPES pH 7.5, 1 mM EGTA, 10 mM MgCl2, 2 mM DTT, 0.05 mg/mL BSA, and 0.01% Tween 20) for 60 minutes at room temperature. The reactions were stopped by the addition of EDTA and Europium-labeled anti-phospho-4E-BP1 antibody (PerkinElmer), for a final concentration of 15 mM and 1.5 nM, respectively. HTRF signals were read after 1 hour at room temperature on a PHERAstar FS plate reader (BMG Labtech). Data was analyzed with IDBS XLFit and GraphPad Prism 5.0 software using a three or four parameter dose response curve to determine IC50 for each compound.

By IC50 is commonly meant the concentration needed to halve the response being measured. High values mean a need for much substance, low ones inhibition by little substance. Regarding `C[C@@H]1CN(S(C)(=O)=O)CC[C@@H]1Nc1nc2c(OC3CCC3)c(-c3cn[nH]c3)ncn2n1` [Example 1, 8-Cyclobutoxy-N-((3R,4S)-3-methyl-1-(methylsulfonyl)piperidin-4-yl)-7-(1H-pyrazol-4-yl)-[1,2,4]triazolo[1,5-c]pyrimidin-2-amine], the IC50 is at most 10 nM.
With `C[C@@H]1CN(S(C)(=O)=O)CC[C@@H]1Nc1nc2c(OCC(F)(F)F)c(-c3cn[nH]c3)ncn2n1` [Example 2, N-((3R,4S)-3-Methyl-1-(methylsulfonyl)piperidin-4-yl)-7-(1H-pyrazol-4-yl)-8-(2,2,2-trifluoroethoxy)-[1,2,4]triazolo[1,5-c]pyrimidin-2-amine], the IC50 was at most 10 nM.
In the case of `C[C@@H]1CN(S(C)(=O)=O)CC[C@@H]1Nc1nc2cnc(-c3cn[nH]c3)c(OCC(F)(F)F)n2n1` [Example 3, N-((3R,4S)-3-Methyl-1-(methylsulfonyl)piperidin-4-yl)-6-(1H-pyrazol-4-yl)-5-(2,2,2-trifluoroethoxy)-[1,2,4]triazolo[1,5-a]pyrazin-2-amine] it was at most 10 nM.
